Measurements as given in patent US20130123355A1, “Fatty acids and metal ions compositions and uses thereof” (priority 2011, published 2013).

Test: Zn levels in cerebrospinal fluid of rats fed Zn compositions
Assay type: in vivo, Sprague-Dawley rats
Settings: oral gavage, about 1 mg elemental zinc per kg per day for 3 weeks, compared with Zinc gluconate
Method: Sprague-Dawley rats are fed various […] compositions by oral gavage so as to provide about 1 mg elemental zinc per kg per day for 3 weeks. The zinc compositions include Zn-DHA, Zn-DHA-LysoPC and Zn-EPA. Control rats were administered equivalent molar amount of zinc gluconate. Cerebrospinal fluid is collected at the end of the treatment, and zinc is measured by atomic absorption spectroscopy.

Compound	CSF levels of Zn
CC/C=C\C/C=C\C/C=C\C/C=C\C/C=C\C/C=C\CCC(=O)[O-].CC/C=C\C/C=C\C/C=C\C/C=C\C/C=C\C/C=C\CCC(=O)[O-].[Zn+2] [Zn-DHA]	higher
CC/C=C\C/C=C\C/C=C\C/C=C\C/C=C\CCCC(=O)[O-].CC/C=C\C/C=C\C/C=C\C/C=C\C/C=C\CCCC(=O)[O-].[Zn+2] [Zn-EPA]	higher
